From PMC10762078, “Role of UPF1-LIN28A interaction during early differentiation of pluripotent stem cells” (Nature Communications, 2024)
Ends that are not written are not given here.

Key:
hPSCs = assay: RT-qPCR of pluripotency and germ-layer markers during differentiation with CPP-peptides (Supplementary Fig. 7b-e); format: cell-based, human; settings: for GATA4 (RT-qPCR) / SOX17 (RT-qPCR): Fig. s7e
CHA15 cells = assay: RT-qPCR of indicated transcripts (NMD targets, pluripotency markers) in CPP-peptide-treated CHA15 cells (Supplementary Fig. 6d); format: cell-based, human; settings: Fig. s6d
Description: For CPP-conjugated peptide delivery, HeLa, 293T, and PA-1 cells were incubated with CPP-conjugated peptides or CPP-FITC at 2 μM in DMEM with 10% FBS for 12 h a day before cell harvest. hPSCs were treated with CPP-conjugated peptides at 10 μM in mTeSR Plus Medium, and the peptide-containing medium was changed every day over 10 days. The ROCK inhibitor (Tocris Bioscience, Y-27632) treated-hPSCs were dissociated into single cells using Accutase (Merck, SCR005) and differentiated into ectoderm, mesoderm, and endoderm using the STEMdiff Trilineage Differentiation Kit ([…] Technologies, 05230) following the manufacturer’s protocol. Differentiated cells treated with CPP-conjugated peptides were analysed at 0, 3, and 5 days for ectoderm and endoderm, and at 0, 3, and 4 days for mesoderm. […]
cDNA was synthesised using RevertAid Reverse Transcriptase (Thermo Fisher Scientific, EP0441) with synthesised random hexamer (Macrogen) for total RNA or stem-loop primers for miRNA. For RT-qPCR reactions, the SensiFAST SYBR No-ROX kit (Meridian Bioscience) was used according to the manufacturer’s protocol. All data analysis and visualisation were conducted using R 3.6.1 [www.r-project.org] or GraphPad Prism 10. RT primers for miRNA and RT-qPCR primer sequences are provided in Supplementary Data 6. […]
Scale bars, 100 μm . d (Corresponding to Fig. 6d) RT -qPCR was perform ed to evaluate the level of indicated transcripts upon the indicated peptide treatm ent in CHA15 cells. e T ranscriptom e analysis was perf orm ed using signif icantly changed transcripts (p < 0.05) f rom siLIN28A or siControl in the indicated CPP-peptide treated CHA15 cells. […]
5p and m iR-16- 5p was shown as CDF graphs. T he relative level of m RNA was norm alised to that of U6 snRNA in (c, d, and f). K–S tests were used for e and f. Unpaired Student’s t-test was used for c , d, and f . * p < 0.05, ** p < 0.01, *** p < 0.001. Exact p -values were provided in Source data. Data are presented as m ean values ± SEM. All statistical test used were two- sided. T he m inim um num ber of independent biological replicate experim ents was a and e n = 2, b–d and f n = 3. T he experim ents were conducted three tim es, each iteration producing consistent results.

[1] = Fig. s7d, day 3, mean of 3 replicates
[2] = Fig. s7d, day 4, mean of 3 replicates
[3] = unpaired t test, two-tailed, df=4

With KKKWCRKKKSSADEKRYRALKRTAERELLMNA [P8] the “CXCR4 mRNA level (RT-qPCR)” value (hPSCs; Fig. s7d, Day 4, replicate 2) was 587.806, the “SNAI1 mRNA level (RT-qPCR)” value (hPSCs; Fig. s7d, Day 4, replicate 2) was 17.9864 and the “TBXT mRNA level (RT-qPCR)” value (hPSCs; Fig. s7d, Day 4, replicate 2) was 2236.13. For the same sequence, the “BMP2 mRNA level (RT-qPCR)” value (hPSCs; Fig. s7d, Day 4, replicate 3) was 0.2852, the “BMP4 mRNA level (RT-qPCR)” value (hPSCs; Fig. s7d, Day 4, replicate 3) was 35.8542 and the “CDH2 mRNA level (RT-qPCR)” value (hPSCs; Fig. s7d, Day 4, replicate 3) was 15.5934. The “CXCR4 mRNA level (RT-qPCR)” value (hPSCs; Fig. s7d, Day 4, replicate 3) was 589.372, the “SNAI1 mRNA level (RT-qPCR)” value (hPSCs; Fig. s7d, Day 4, replicate 3) was 18.1009 and the “TBXT mRNA level (RT-qPCR)” value (hPSCs; Fig. s7d, Day 4, replicate 3) was 2648.18. The “SNAI1 difference between means (P8 - P1) ± SEM” value (hPSCs; Fig. s7d, day 3, P8 vs. P1) was -10.01 ± 2.987, the “SNAI1 difference between means, 95% confidence interval” value (hPSCs; Fig. s7d, day 3, P8 vs. P1) was -18.30 to -1.717 and the “TBXT difference between means (P8 - P1) ± SEM” value (hPSCs; Fig. s7d, day 3, P8 vs. P1) was -3827 ± 1244. For the same sequence, the “TBXT difference between means, 95% confidence interval” value (hPSCs; Fig. s7d, day 3, P8 vs. P1) was -7280 to -372.8, the “SNAI1 mRNA level (RT-qPCR), mean” value (hPSCs; [1]) was 12.93 and the “TBXT mRNA level (RT-qPCR), mean” value (hPSCs; [1]) was 4321. The “BMP4 difference between means (P8 - P1) ± SEM” value (hPSCs; Fig. s7d, day 4, P8 vs. P1) was 18.59 ± 2.500, the “BMP4 difference between means, 95% confidence interval” value (hPSCs; Fig. s7d, day 4, P8 vs. P1) was 11.65 to 25.53 and the “CDH2 difference between means (P8 - P1) ± SEM” value (hPSCs; Fig. s7d, day 4, P8 vs. P1) was -2.944 ± 0.7977. For the same sequence, the “CDH2 difference between means, 95% confidence interval” value (hPSCs; Fig. s7d, day 4, P8 vs. P1) was -5.158 to -0.7287, the “TBXT difference between means (P8 - P1) ± SEM” value (hPSCs; Fig. s7d, day 4, P8 vs. P1) was -1631 ± 305.2 and the “TBXT difference between means, 95% confidence interval” value (hPSCs; Fig. s7d, day 4, P8 vs. P1) was -2478 to -783.3. For the same sequence, the “BMP4 mRNA level (RT-qPCR), mean” value (hPSCs; [2]) was 31.63, the “CDH2 mRNA level (RT-qPCR), mean” value (hPSCs; [2]) was 14.46 and the “TBXT mRNA level (RT-qPCR), mean” value (hPSCs; [2]) was 2322. The “GATA4 (RT-qPCR)” value (hPSCs; Day 0, replicate 1) was 0.7242, the “GATA4 (RT-qPCR)” value (hPSCs; Day 0, replicate 2) was 1.3517 and the “GATA4 (RT-qPCR)” value (hPSCs; Day 0, replicate 3) was 0.9241. For the same sequence, the “GATA4 (RT-qPCR)” value (hPSCs; Day 3, replicate 1) was 32.2, the “GATA4 (RT-qPCR)” value (hPSCs; Day 3, replicate 2) was 35.8526 and the “GATA4 (RT-qPCR)” value (hPSCs; Day 3, replicate 3) was 22.1669. For the same sequence, the “GATA4 (RT-qPCR)” value (hPSCs; Day 5, replicate 1) was 75.9376, the “GATA4 (RT-qPCR)” value (hPSCs; Day 5, replicate 2) was 69.9276 and the “GATA4 (RT-qPCR)” value (hPSCs; Day 5, replicate 3) was 152.842. The “SOX17 (RT-qPCR)” value (hPSCs; Day 0, replicate 1) was 1.264, the “SOX17 (RT-qPCR)” value (hPSCs; Day 0, replicate 2) was 0.8709 and the “SOX17 (RT-qPCR)” value (hPSCs; Day 0, replicate 3) was 0.8647. The “SOX17 (RT-qPCR)” value (hPSCs; Day 3, replicate 1) was 2247.1, the “SOX17 (RT-qPCR)” value (hPSCs; Day 3, replicate 2) was 1796.71 and the “SOX17 (RT-qPCR)” value (hPSCs; Day 3, replicate 3) was 1610.91. The “SOX17 (RT-qPCR)” value (hPSCs; Day 5, replicate 1) was 1021.85, the “SOX17 (RT-qPCR)” value (hPSCs; Day 5, replicate 2) was 1109.15 and the “SOX17 (RT-qPCR)” value (hPSCs; Day 5, replicate 3) was 1096.19. For the same sequence, the “DLK1 mRNA level, mean” value (CHA15 cells; mean of 3 replicates) was 56.31, the “FRZB mRNA level, mean” value (CHA15 cells; mean of 3 replicates) was 8.725 and the “GLI2 mRNA level, mean” value (CHA15 cells; mean of 3 replicates) was 0.6516. For the same sequence, the “MAPK7 mRNA level, mean” value (CHA15 cells; mean of 3 replicates) was 0.7487, the “NANOG mRNA level, mean” value (CHA15 cells; mean of 3 replicates) was 0.4762 and the “NNAT mRNA level, mean” value (CHA15 cells; mean of 3 replicates) was 3.136. For the same sequence, the “PDZD4 mRNA level, mean” value (CHA15 cells; mean of 3 replicates) was 0.2348, the “POU5F1 mRNA level, mean” value (CHA15 cells; mean of 3 replicates) was 0.5449 and the “SERPINB9 mRNA level, mean” value (CHA15 cells; mean of 3 replicates) was 0.7287. The “SIX3 mRNA level, mean” value (CHA15 cells; mean of 3 replicates) was 16.62, the “SLC7A5 mRNA level, mean” value (CHA15 cells; mean of 3 replicates) was 0.3065 and the “SNAP25 mRNA level, mean” value (CHA15 cells; mean of 3 replicates) was 0.3657. The “SOX2 mRNA level, mean” value (CHA15 cells; mean of 3 replicates) was 1.107, the “TRMT61A mRNA level, mean” value (CHA15 cells; mean of 3 replicates) was 0.5794 and the “WLS mRNA level, mean” value (CHA15 cells; mean of 3 replicates) was 7.117. For the same sequence, the “DLK1, difference between means ± SEM vs. P1” value (CHA15 cells; [3]) was 55.31 ± 2.539, the “FRZB, difference between means ± SEM vs. P1” value (CHA15 cells; [3]) was 7.724 ± 0.7174 and the “GLI2, difference between means ± SEM vs. P1” value (CHA15 cells; [3]) was -0.3484 ± 0.08883. The “MAPK7, difference between means ± SEM vs. P1” value (CHA15 cells; [3]) was -0.2513 ± 0.07831, the “NANOG, difference between means ± SEM vs. P1” value (CHA15 cells; [3]) was -0.5239 ± 0.0638 and the “NNAT, difference between means ± SEM vs. P1” value (CHA15 cells; [3]) was 2.136 ± 0.5570. For the same sequence, the “PDZD4, difference between means ± SEM vs. P1” value (CHA15 cells; [3]) was -0.7652 ± 0.01959, the “POU5F1, difference between means ± SEM vs. P1” value (CHA15 cells; [3]) was -0.4552 ± 0.05944 and the “SERPINB9, difference between means ± SEM vs. P1” value (CHA15 cells; [3]) was -0.2711 ± 0.04259. For the same sequence, the “SIX3, difference between means ± SEM vs. P1” value (CHA15 cells; [3]) was 15.62 ± 1.865, the “SLC7A5, difference between means ± SEM vs. P1” value (CHA15 cells; [3]) was -0.6935 ± 0.02913 and the “SNAP25, difference between means ± SEM vs. P1” value (CHA15 cells; [3]) was -0.6344 ± 0.08552. For the same sequence, the “SOX2, difference between means ± SEM vs. P1” value (CHA15 cells; [3]) was 0.1072 ± 0.1176, the “TRMT61A, difference between means ± SEM vs. P1” value (CHA15 cells; [3]) was -0.4206 ± 0.05922 and the “WLS, difference between means ± SEM vs. P1” value (CHA15 cells; [3]) was 6.117 ± 0.3119.
